Assay results taken from patent US20090005711A1, “Systems and methods for opening of the blood-brain barrier of a subject using ultrasound” (priority 2005, published 2009).

Legend:
[1] = system: left hippocampus (BBB opening and closure); experiment: 9.4 T MRI of gadolinium deposition after FUS with SonoVue in APP/PS1 and NTg mice (Example C); type: in vivo, mouse
Description: In an example, transgenic mice expressing mutant human APPK670N,M671L protein (line Tg2576) and a line of mice expressing human mutant PS1M146V protein (line 8.9) were crossed to generate offspring: doubly transgenic APP/PS1 animals and wild-type NTg littermates A total of six mice (age: 12 months, mass: 26-37 g) were used: transgenic APP/PS1 (n=3) and NTg (m=3) mice.
The experimental timeline is depicted in FIG. 17. Each mouse 180 with intact skin and skull 182 was anesthetized using 1.25-2.50% isoflurane (SurgiVet, Smiths Medical PM, Inc., Wisconsin, USA) and placed prone with its head immobilized by a stereotaxic apparatus 184 (David Kopf Instruments, Tujunga, Calif.) that included a mouse head holder, ear bars, and a gas anesthesia mask (FIG. 16). […] A degassed water-filled container 186 sealed at the bottom with a thin, acoustically and optically transparent, Saran™ Wrap (Saran, SC Johnson, Racine, Wis., USA) was placed on top of the mouse head (FIG. 16). Ultrasound coupling gel 188 was also used to eliminate any remaining impedance mismatch.
FIG. 18(A) illustrates the frontal bone 200, sagittal suture 202, lambdoid suture 204, left parietal bone 206, right parietal bone 208, and intraparietal bone 210. […] The beam axis of the transducer was aligned 2.25 mm away from the sagittal suture 202 and 2 mm away from the lambdoid suture 204 (FIG. 18(A)). The focal point was placed 3 mm beneath the top of the parietal bone of the skull (dotted line in FIG. 18(A)). In this placement, the focus of the FUS beam overlapped with the left hippocampus 212 and the left posterior cerebral artery (PCA) (FIG. 18(A)-(B)). […] After the BBB opening, gadolinium was injected and monitored with MRI (FIG. 18(C). The horizontal slices shown in FIGS. 18(B)-(C) were obtained approximately 3 mm beneath the top of the skull. […]
A vertical bore 9.4-Tesla MR scanner (Bruker Medical, Boston, Mass., USA) was used to acquire images of mouse brains in two separate sessions. […] 1-2% isoflurane was administered while the respiration rate of the mouse was monitored throughout the entire MRI procedure. […]

[2] = system: left hippocampus of the mouse brain (BBB opening)
Description: Brown CB57-b16 type mice (Charles River Laboratories, Wilmington, Mass., USA; mass: 23 to 28 g) were used in sonication procedures. The mice were anesthetized with a mixture of ketamine (Fort Dodge Animal Health, Fort Dodge, Iowa, USA; concentration: 75 mg per kg of body mass) and xylazine (Ben Venue Laboratories, Bedford, Ohio, USA; concentration: 3.75 mg per kg of body mass). Before sonication, the hair on the top of the mouse heads was removed using an electric trimmer and a depilatory cream. After sonication, but before MRI scanning, the mice were switched to administration of isoflurane to simplify the long anesthesia procedure necessary for MRI scanning. During all imaging procedures, the vital signs of the mice were continuously monitored.
Ultrasound gel was used further to reduce any remaining impedance mismatches between the thin plastic layer 138 and the mouse skin.
The focus of the transducer 102 was positioned inside the mouse brain using a grid positioning method, as discussed above. In this method, the sutures of the mouse skull seen through the skin were used as anatomic landmarks for targeting purposes. The location of the hippocampi were assumed relative to the sutures based on the mouse brain and known skull anatomy, as illustrated in FIG. 4. […] In CB57-b16 type mice, these were the sutures that could be clearly seen through the skin.
Ultrasound contrast medium was administered for transport across the BBB. A bolus of 10 μL (approximately 0.4 mL/kg) of ultrasound contrast agent (Optison) that contained microbubbles (mean diameter: 3.0 to 4.5 μm: concentration: 5.0 to 8.0×108 bubbles per mL) was injected into the right femoral vein of the mouse approximately 15 minutes before sonication (Table 1). Pulsed-wave FUS (burst rate: 10 Hz; burst duration: 20 ms; duty cycle: 20%; acoustic pressures at the focus: 2.0, 2.5 and 2.7 MPa) was then applied in a series of five shots lasting 30 seconds each with a 30 second delay between each shot. The FUS sonication procedure was performed once in each mouse brain. […]

Compound: [Gd] [gadolinium]
- Contrast enhancement on MR images, day 1 ([1]; 0.64 MPa, 25 μl SonoVue, scans 90 min post-sonication, 90 min post-gadolinium injection (0.75 ml IP)): the entire left hippocampus and some of its surrounding regions were contrast-enhanced
- Area and degree of contrast enhancement, day 2 ([1]; 0.64 MPa, 25 μl SonoVue, scans 22 hours post-sonication, second gadolinium injection, compared with day 1): significantly reduced
- Residual gadolinium in pre-gadolinium T1 and T2-weighted images ([1]; before the day 2 scan (22 hours post-sonication)): no residual gadolinium
- Contrast enhancement / permeation on T1 MRI scans [2]: eventually encompassing the entire left hippocampus
- Contrast enhancement / BBB opening on T1 MRI scans ([2]; in vivo, ip): highly localized opening of the BBB near the PCA
- Contrast enhancement on T1 MRI scans ([2]; in vivo, ip): no contrast enhancement was observed
